Test results reported in ChEMBL document CHEMBL1201862, “PubChem BioAssay data set” (2004).
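48-hour exposure; five concentrations; linearly interpolated endpoints. GI50 marks 50% less growth.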 Calls of active or inactive are those of the source. Rule as the data show it: active = GI50 up to about 1.1 µM and inactive = higher.

Experiments:
Test in all cases: growth of human tumour cells (NCI), 48 h
DLD-1 = test system: DLD-1
DMS-114 = test system: DMS-114
DMS-273 = test system: DMS-273
HOP-18 = test system: HOP-18
LXFL 529 = test system: LXFL 529
RXF 631 = test system: RXF 631
SNB-78 = test system: SNB-78
XF498 = test system: XF498
BT-549 = test system: BT-549

Measured: GI50

Nc1nc(-c2ccccc2)cc(-c2ccccc2O)n1
inactive: DLD-1 23.9 µM | DMS-114 35.2 µM | DMS-273 32 µM | HOP-18 > 100 µM | LXFL 529 30.8 µM | RXF 631 34.1 µM | SNB-78 76.9 µM | XF498 > 100 µM

CCc1ccccc1NC(=O)/C(=N/O)C(C)=O
inactive: DLD-1 > 100 µM | DMS-114 > 100 µM | DMS-273 > 100 µM | HOP-18 > 100 µM | LXFL 529 > 100 µM | RXF 631 > 100 µM | SNB-78 > 100 µM | XF498 > 100 µM

CC1CCCP(=O)(c2ccccc2)CCC1 (centres undefined)
inactive: DLD-1 > 100 µM | DMS-114 > 100 µM | DMS-273 > 100 µM | HOP-18 69 µM | LXFL 529 > 100 µM | RXF 631 > 100 µM | SNB-78 > 100 µM | XF498 > 100 µM

O=S1(=O)CCC2=CC(C(F)(F)F)=CC(C(F)(F)F)=CN21
active: DLD-1 0.339 µM | DMS-273 0.767 µM | LXFL 529 0.435 µM
inactive: BT-549 2.43 µM | DMS-114 1.37 µM | HOP-18 3.35 µM | RXF 631 1.95 µM | SNB-78 1.85 µM | XF498 1.79 µM

N#CC(C(=O)/C(=N/NC(=O)c1ccccc1O)C(C#N)c1ccc(Br)cc1)c1ccc(Br)cc1 (centres undefined)
inactive: DLD-1 4.79 µM | DMS-114 15.7 µM | DMS-273 13.4 µM | HOP-18 8.41 µM | LXFL 529 3.32 µM | RXF 631 14.1 µM | SNB-78 4.75 µM | XF498 13.7 µM

COc1cccc2nc3c(C(=O)NCCN(C)C)cccc3nc12
inactive: DLD-1 5.68 µM | DMS-114 8.07 µM | DMS-273 7.36 µM | HOP-18 29.5 µM | LXFL 529 11.1 µM | RXF 631 10.8 µM | SNB-78 12.9 µM
active: XF498 0.986 µM
